{"source": "patent US20170209348A1", "about": "“BIOPHOTONIC COMPOSITIONS COMPRISING HALOGEN AND USES THEREOF” (KLOX Technologies Inc., priority 2014, published 2017)", "test": "Photobleaching of Eosin Y in carbomer gel under blue light", "format": "physicochemical", "details": "109 μg/g Eosin Y, 12% urea peroxide, 200 ppm KI, blue light 5 cm, 10 minutes", "description": "In this experiment, a first carbomer gel comprising 109 μg/g of Eosin Y and 12% urea peroxide (UP) was prepared. […] The two gels were then illuminated with blue light (5 cm distance) for 10 minutes. The fluorescence was measured and recorded by a spectrophotometer."}
{"smiles": "[I-].[K+]", "note": "[KI]", "values": [{"measurement": "time taken to photobleach the chromophore", "result": "prolonged the time taken to photobleach the chromophore"}]}
